What was measured:
[1] = Pharmacokinetics of 5-MeO-DMT and bufotenine after inhalation of 5-MeO-DMT; assay type: in vivo, human
[2] = test system: patients with postpartum depression (PPD); test: Clinical trial of inhaled 5-MeO-DMT in postpartum depression, one patient, IDR 6 mg then 12 mg; assay type: in vivo, human; conditions: n=1
Text: Maternal functioning can, for instance, be assessed using the Barkin Index of Maternal Functioning (BIMF). This index was designed to measure functioning in the year after childbirth. The BIMF is a 20-item self-report measure of functioning. Each item is assigned a score between 0 and 6 so that the maximum total score is 120. The higher the score, the better maternal functioning is rated.
The single-arm, open-label clinical trial will involve 15 adult female patients with clinically diagnosed postpartum depression (PPD).
The second dose (12 mg) will only be administered if: • a. […] The 6 mg dose was safe and well-tolerated according to the investigator, • c. Any psychoactive effects (PsE) of the prior dose have subsided, and • d. Pre-dose vital parameters and forced expiratory volume in one second (FEV1) are in normal range, or if outside of the normal range, are not clinically significant according to the investigator. • 3. Similarly, a third dose (18 mg) will only be administered if: • a. […] The 12 mg dose was safe and well-tolerated according to the investigator, and • c. Any PsE of the prior dose have subsided, and • d. Pre-dose vital parameters and forced expiratory volume in one second (FEV1) are in normal range, or if outside of the normal range, are not clinically significant according to the investigator.
The patients will be assessed for a peak psychedelic experience (based on a patient-scored visual analogue scale, the PE scale), sedation, and other endpoints after dosing. Follow-up visits are planned for Day 1, and Day 7 after the dosing day.
The following criteria must be met by all patients considered for clinical trial participation: • 1. Is female and in the age range between 18 and 45 years (inclusive) at screening. • 2. Has a body mass index (BMI) in the range of 18.5 and 35 kg/m^2 (inclusive) at screening. • 3. Meets the trial criteria for PPD as assessed by a trial psychiatrist or registered psychologist: • a. Diagnosis of Major Depressive Disorder without psychotic features, confirmed by the Mini-International Neuropsychiatric Interview (MINI), with peri-partum onset that began no earlier than gestation and no later than the first 4 weeks postpartum. • b. Has a Montgomery-Åsberg Depression Rating Scale (MADRS) total score of equal to or greater than 28 at screening and pre-dose on Day 0. • 6. […] Patients must have a negative pregnancy test at screening and on the pre-test day (Day-1). • 5. Is willing to delay start of other antidepressant or anxiety medication until after the end of the trial at Day 7 and agrees to keep any psychotherapy unchanged during the trial.
A potential patient who meets any of the following key exclusion criteria will be excluded from participation in this trial: • 1. Has, based on history, psychiatric assessment, and evaluation of the MINI, a current or prior diagnosis of bipolar disorder, a manic or hypomanic episode, a psychotic disorder, Major Depressive Disorder (MDD) or other mood disorder with psychotic features, obsessive compulsive disorder, post-traumatic stress disorder (PTSD), autism spectrum disorder, borderline personality disorder, schizophrenia, delusional disorder, paranoid personality disorder, schizoaffective disorder, clinically significant intellectual disability, or any other psychiatric comorbidity that renders the patient unsuitable for the trial according to the investigator's judgment. • 2. Has one or more first or second degree relatives with a current or previously diagnosed bipolar disorder, psychotic disorder or other mood disorder (including MDD) with psychotic features. • 3.

[3] = test system: Escherichia coli WP2 uvrA pKM101; test: Bacterial mutation test, Escherichia coli; assay type: cell-based; conditions: up to 5000 μg/plate, absence and presence of rat liver S-9
Description: (§1) These conditions included treatments at concentrations up to 5000 μg/plate (the maximum recommended concentration according to current regulatory guidelines), in the absence and in the presence of a rat liver metabolic activation system (S-9).

[4] = test system: Salmonella typhimurium TA98, TA100, TA1535 and TA1537; test: Bacterial mutation test, Salmonella typhimurium; assay type: cell-based; conditions: up to 5000 μg/plate, absence and presence of rat liver S-9
Description: as §1

Structure (SMILES): COc1ccc2[nH]cc(CCN(C)C)c2c1 [5-MeO-DMT]
- detectability in the plasma ([1]; 3 hours after inhalation, whole dose range 6, 12, 18 mg): no longer detectable
- pharmacokinetic measurements under uptitration ([1]; dosing schemes relying on uptitration, compared with single doses): Substantially similar results
- standard criteria for MADRS remission (MADRS total score equal or less than 10) [2]: fulfilled
- standard criteria for MADRS response (at least 50% improvement from baseline) [2]: fulfilled
- time to clinical remission after administration [2]: ≤ 2 h
- durability of clinical response ([2]; 5-MeO-DMT given on one day only): sustained over the 7-day follow-up period
- Total MADRS Improvement ([2]; 2 hr): 24
- BPRS Tension Improvement ([2]; Day 1): 5
- Total MADRS Improvement ([2]; Day 1): 29
- Total MADRS Improvement ([2]; Day 7): 28
- BIMF item 19 As time goes on, I am getting better at taking care of my baby, score ([2]; Day 7, Day 0 score 0): 1
- BIMF item 13 I am taking good care of my physical needs, score ([2]; Day 7, Day 0 score 4): 5
- BIMF item 5 I am able to relax and enjoy time with my baby, score ([2]; Day 7, Day 0 score 5): 6
- BIMF item 9 I am getting enough encouragement from other people, score ([2]; Day 7, Day 0 score 5): 6
- BIMF item 10 I trust my own feelings (instincts) when it comes to taking care of my baby, score ([2]; Day 7, Day 0 score 5): 6
- BIMF item 17 I am able to take care of my baby and my other responsibilities, score ([2]; Day 7, Day 0 score 5): 5
- BIMF functional domain Adjustment score ([2]; Day 7, Day 0 score 5, maximum possible 12): 6
- BIMF item 3 I am comfortable with the way I've chosen to feed my baby, score ([2]; Day 7, Day 0 score 6): 6
- BIMF item 6 There are people in my life that I can trust to care for my baby when I need a break, score ([2]; Day 7, Day 0 score 6): 6
- BIMF item 8 I am getting enough adult interaction, score ([2]; Day 7, Day 0 score 6): 6
- BIMF item 12 I am taking good care of my baby's physical needs, score ([2]; Day 7, Day 0 score 6): 6
- BIMF item 14 I make good decisions about my baby's health and well being, score ([2]; Day 7, Day 0 score 6): 6
- BIMF item 20 I am satisfied with the job I am doing as a new mother, score ([2]; Day 7, Day 0 score 6): 5
- BIMF functional domain Self Care score ([2]; Day 7, Day 0 score 9, maximum possible 18): 13
- BIMF functional domain Infant Care score ([2]; Day 7, Day 0 score 12, maximum possible 12): 12
- BIMF functional domain Mother-Child Interaction score ([2]; Day 7, Day 0 score 15, maximum possible 18): 17
- BIMF functional domain Social Support score ([2]; Day 7, Day 0 score 17, maximum possible 18): 18
- BIMF functional domain Management score ([2]; Day 7, Day 0 score 28, maximum possible 36): 33
- BIMF functional domain Psychological Well-being score ([2]; Day 7, Day 0 score 44, maximum possible 60): 53
- BIMF total score improvement ([2]; Day 7, from 92 to 105 of possible 120): 14%
- BIMF TOTAL, Δ (Day 7) ([2]; Day 7 vs Day 0): 13
- BIMF item 3 I am comfortable with the way I've chosen to feed my baby, Δ (Day 7) ([2]; Day 7 vs Day 0): 0
- BIMF item 5 I am able to relax and enjoy time with my baby, Δ (Day 7) ([2]; Day 7 vs Day 0): 1
- BIMF item 6 There are people in my life that I can trust to care for my baby when I need a break, Δ (Day 7) ([2]; Day 7 vs Day 0): 0
- BIMF item 8 I am getting enough adult interaction, Δ (Day 7) ([2]; Day 7 vs Day 0): 0
- BIMF item 9 I am getting enough encouragement from other people, Δ (Day 7) ([2]; Day 7 vs Day 0): 1
- BIMF item 10 I trust my own feelings (instincts) when it comes to taking care of my baby, Δ (Day 7) ([2]; Day 7 vs Day 0): 1
- BIMF item 11 I take a little time each week to do something for myself, Δ (Day 7) ([2]; Day 7 vs Day 0): 1
- BIMF item 12 I am taking good care of my baby's physical needs, Δ (Day 7) ([2]; Day 7 vs Day 0): 0
- BIMF item 13 I am taking good care of my physical needs, Δ (Day 7) ([2]; Day 7 vs Day 0): 1
- BIMF item 14 I make good decisions about my baby's health and well being, Δ (Day 7) ([2]; Day 7 vs Day 0): 0
- BIMF item 17 I am able to take care of my baby and my other responsibilities, Δ (Day 7) ([2]; Day 7 vs Day 0): 0
- BIMF item 19 As time goes on, I am getting better at taking care of my baby, Δ (Day 7) ([2]; Day 7 vs Day 0): 1
- BIMF item 20 I am satisfied with the job I am doing as a new mother, Δ (Day 7) ([2]; Day 7 vs Day 0): −1
- BPRS Tension Improvement ([2]; Discharge): 5
- mutation induction [3]: did not induce mutation
- mutation induction [4]: did not induce mutation

Structure (SMILES): CN(C)CCc1c[nH]c2ccc(O)cc12 [bufotenine]
- bufotenine blood concentration above LLOQ ([1]; after inhaled 5-MeO-DMT, LLOQ 25 pg/ml): Only in few samples
- bufotenine blood concentrations under uptitration ([1]; subjects receiving an uptitration scheme included): Substantially similar observations
